Data published in patent US20240158392A1 (Janssen Biotech, Inc., priority 2021, published 2024).
pIC50: −log10 of the molar value.

target: SIK2 (Homo sapiens, UniProt Q9H0K1); assay: SIK2 Enzymatic Assay High Version 2 (High ATP); assay type: biochemical; conditions: not given
Procedure, shortened: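 At room temperature, enzyme (6 nM, 2× final) was preincubated with compound for 30 min, then 6 mM ATP and 400 μM HDAC5tide (both 2× final) were added for 2 h. ADP formed was measured by ADP-Glo Max (2 h reagent, 1 h detection) using luminescence.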

Sequence of SIK2 (Q9H0K1 whole entry, species assumed): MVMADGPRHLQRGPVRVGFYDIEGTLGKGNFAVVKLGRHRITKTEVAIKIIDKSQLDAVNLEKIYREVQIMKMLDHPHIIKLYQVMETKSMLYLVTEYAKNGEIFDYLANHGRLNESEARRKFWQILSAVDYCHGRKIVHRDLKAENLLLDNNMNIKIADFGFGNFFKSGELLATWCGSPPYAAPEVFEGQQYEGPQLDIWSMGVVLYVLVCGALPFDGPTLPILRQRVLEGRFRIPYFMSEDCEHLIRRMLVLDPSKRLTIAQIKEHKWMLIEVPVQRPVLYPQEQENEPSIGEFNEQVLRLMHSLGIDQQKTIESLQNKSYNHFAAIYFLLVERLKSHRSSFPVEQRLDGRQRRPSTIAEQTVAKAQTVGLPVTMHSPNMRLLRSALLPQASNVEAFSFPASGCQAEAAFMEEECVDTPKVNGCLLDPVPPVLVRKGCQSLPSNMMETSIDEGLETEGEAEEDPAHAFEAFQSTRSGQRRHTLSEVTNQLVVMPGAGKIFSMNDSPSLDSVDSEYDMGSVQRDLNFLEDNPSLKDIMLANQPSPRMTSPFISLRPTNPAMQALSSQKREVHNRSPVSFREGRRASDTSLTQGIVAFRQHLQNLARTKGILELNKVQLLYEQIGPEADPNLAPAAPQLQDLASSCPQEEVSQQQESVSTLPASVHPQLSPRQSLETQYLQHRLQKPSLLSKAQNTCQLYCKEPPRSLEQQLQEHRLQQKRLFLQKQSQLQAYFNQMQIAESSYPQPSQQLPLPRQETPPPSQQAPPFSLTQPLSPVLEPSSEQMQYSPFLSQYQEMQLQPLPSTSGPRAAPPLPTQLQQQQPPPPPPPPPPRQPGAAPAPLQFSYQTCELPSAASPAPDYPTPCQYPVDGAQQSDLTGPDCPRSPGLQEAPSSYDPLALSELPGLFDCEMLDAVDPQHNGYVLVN

Structure (SMILES)	pIC50
Cc1cc(-c2ccn3nc(Nc4cc(C(F)(F)F)ccn4)cc3c2)c(O[C@H]2C[C@H]3COC[C@@H](C2)N3)cn1 [Example 378, 5-[2-methyl-5-[[(1S,5R,7s)-3-oxa-9-azabicyclo[3.3.1]nonan-7-yl]oxy]-4-pyridyl]-N-[4-(trifluoromethyl)-2-pyridyl]pyrazolo[1,5-a]pyridin-2-amine]	> 9.07
Cc1cc(-c2ccn3nc(Nc4cn(CC(C)(C)O)nc4C(=O)C(F)(F)F)cc3c2)c(O[C@H]2C[C@H]3COC[C@@H](C2)N3)cn1 [Example 122, 1-(4-((5-(5-(((1R,5S,7s)-3-oxa-9-azabicyclo[3.3.1]nonan-7-yl)oxy)-2-methylpyridin-4-yl)pyrazolo[1,5-a]pyridin-2-yl)amino)-1-(2-hydroxy-2-methylpropyl)-1H-pyrazol-3-yl)-2,2,2-trifluoroethan-1-one]	5.62
Cc1cc(-c2ccn3nc(Nc4cc(C)nc(C)n4)cc3c2)c(OC[C@@H]2CC[C@@H](O)CO2)cn1 (single isomer, unassigned) [Example 346, (3*R,6*S)-6-[[4-[2-[(2,6-dimethylpyrimidin-4-yl)amino]pyrazolo[1,5-a]pyridin-5-yl]-6-methyl-3-pyridyl]oxymethyl]tetrahydropyran-3-ol]	7.78
CNC(=O)c1ccnc(Nc2cc3cc(-c4cc(C)ncc4O[C@H]4C[C@H]5COC[C@@H](C4)N5C(=O)C4CC4)ccn3n2)c1 [Example 634, 2-((5-(5-(((1R,5S,7s)-9-(cyclopropanecarbonyl)-3-oxa-9-azabicyclo[3.3.1]nonan-7-yl)oxy)-2-methylpyridin-4-yl)pyrazolo[1,5-a]pyridin-2-yl)amino)-N-methylisonicotinamide]	6.44
CC#Cc1cc(-c2ccn3nc(Nc4ccn(C)n4)cc3c2)c(O[C@H]2C[C@H]3COC[C@@H](C2)N3)cn1 [Example 438, N-(1-methylpyrazol-3-yl)-5-[5-[[(1S,5R)-3-oxa-9-azabicyclo[3.3.1]nonan-7-yl]oxy]-2-prop-1-ynyl-4-pyridyl]pyrazolo[1,5-a]pyridin-2-amine]	7.99
CCN1[C@@H]2COC[C@H]1C[C@@H](Oc1cnc(C)cc1-c1ccn3nc(Nc4ccc(C(=O)NC)cn4)cc3c1)C2 [Example 530, 6-[[5-[5-[[(1S,5R)-9-ethyl-3-oxa-9-azabicyclo[3.3.1]nonan-7-yl]oxy]-2-methyl-4-pyridyl]pyrazolo[1,5-a]pyridin-2-yl]amino]-N-methyl-pyridine-3-carboxamide]	8.63
Cc1cc(-c2ccn3nc(Nc4cnccn4)cc3c2)c(O[C@H]2C[C@H]3COC[C@@H](C2)N3)cn1 [Example 392, 5-[2-methyl-5-[[(1S,5R,7s)-3-oxa-9-azabicyclo[3.3.1]nonan-7-yl]oxy]-4-pyridyl]-N-pyrazin-2-yl-pyrazolo[1,5-a]pyridin-2-amine]	8.97
Cc1cc(-c2ccn3nc(Nc4cnn(C)c4)cc3c2)c(O[C@H]2C[C@H]3COC[C@@H](C2)N3)cn1 [Example 123, 7-endo-5-[2-methyl-5-[[(1S,5R)-3-oxa-9-azabicyclo[3.3.1]nonan-7-yl]oxy]-4-pyridyl]-N-(1-methylpyrazol-4-yl)pyrazolo[1,5-a]pyridin-2-amine]	9.03
Cc1cc(-c2ccn3nc(Nc4cc(C)nc(C)n4)cc3c2)c(OC[C@@H]2COC(=O)N2)cn1 [Example 342, (4R)-4-[[4-[2-[(2,6-dimethylpyrimidin-4-yl)amino]pyrazolo[1,5-a]pyridin-5-yl]-6-methyl-3-pyridyl]oxymethyl]oxazolidin-2-one]	7.49

same assay, conditions: enzyme 6 nM, 6 mM ATP and 400 μM HDAC5tide (each 2× final concentration); 30 minutes pre-incubation, 2 hours; ADP-Glo Max luminescence; read-out: SIK2 high ATP IC50 (μM) (Test Example 2)

Structure (SMILES)	IC50 [µM]
Cc1cc(-c2ccn3nc(Nc4cc(C)nc(C)n4)cc3c2)c(OCc2ccccc2OC(F)F)cn1 [Example 553, 5-[5-[[2-(difluoromethoxy)phenyl]methoxy]-2-methyl-4-pyridyl]-N-(2,6-dimethylpyrimidin-4-yl)pyrazolo[1,5-a]pyridin-2-amine]	0.0101
Cc1cc(-c2ccn3nc(NC(=O)C4CC4)cc3c2)c(OC2CCC(=O)CC2)cn1 [Example 186, N-[5-[2-methyl-5-(4-oxocyclohexoxy)-4-pyridyl]pyrazolo[1,5-a]pyridin-2-yl]cyclopropanecarboxamide]	0.0164
Cc1cc(Nc2cc3cc(-c4cc(OC(F)F)ncc4OCC(C)(N)C(F)(F)F)ccn3n2)nc(C)n1 (single isomer, unassigned) [Example 755, (*R)-5-[5-(2-amino-3,3,3-trifluoro-2-methyl-propoxy)-2-(difluoromethoxy)-4-pyridyl]-N-(2,6-dimethylpyrimidin-4-yl)pyrazolo[1,5-a]pyridin-2-amine]	0.00215
CN1CC(Oc2nnc(Cl)cc2-c2ccn3nc(NC(=O)C4CC4)cc3c2)C1 [Example 485, N-[5-[6-chloro-3-(1-methylazetidin-3-yl)oxy-pyridazin-4-yl]pyrazolo[1,5-a]pyridin-2-yl]cyclopropanecarboxamide]	< 0.000847
Cc1cc(Nc2cc3cc(-c4cc(OC(F)F)ncc4OCC(C)(C)C#N)ccn3n2)ncn1 [Example 685, 3-[[6-(difluoromethoxy)-4-[2-[(6-methylpyrimidin-4-yl)amino]pyrazolo[1,5-a]pyridin-5-yl]-3-pyridyl]oxy]-2,2-dimethyl-propanenitrile]	0.0312
Cc1cc(-c2ccn3nc(NC(=O)C4CC4)cc3c2)c(OCC2CN(CCF)C2)cn1 [Example 457, N-[5-[5-[[1-(2-fluoroethyl)azetidin-3-yl]methoxy]-2-methyl-4-pyridyl]pyrazolo[1,5-a]pyridin-2-yl]cyclopropanecarboxamide]	0.0298
CC(C)(C#N)COc1cnc(OC(F)F)cc1-c1ccn2nc(NC(=O)C3CC3)cc2c1 [Example 665, N-[5-[5-(2-cyano-2-methyl-propoxy)-2-(difluoromethoxy)-4-pyridyl]pyrazolo[1,5-a]pyridin-2-yl]cyclopropanecarboxamide]	0.0244
Cc1cc(-c2ccn3nc(Nc4cc(C)nc(C)n4)cc3c2)c(OC[C@@H]2COC(C)(C)C2)cn1 (single isomer, unassigned) [Example 539, (*R)—N-(2,6-dimethylpyrimidin-4-yl)-5-[5-[(5,5-dimethyltetrahydrofuran-3-yl)methoxy]-2-methyl-4-pyridyl]pyrazolo[1,5-a]pyridin-2-amine]	0.0606
Cc1cc(Nc2cc3cc(-c4cc(OC(F)F)ncc4OC[C@@H]4CC(=O)NC4(C)C)ccn3n2)nc(C)n1 (single isomer, unassigned) [Example 738, (*R)-4-[[6-(difluoromethoxy)-4-[2-[(2,6-dimethylpyrimidin-4-yl)amino]pyrazolo[1,5-a]pyridin-5-yl]-3-pyridyl]oxymethyl]-5,5-dimethyl-pyrrolidin-2-one]	0.00304
Cc1cc(-c2ccn3nc(Nc4cc(C)nc(C)n4)cc3c2)c(OC[C@@H]2COC3(CCCC3)O2)cn1 (single isomer, unassigned) [Example 543, (*R)—N-(2,6-dimethylpyrimidin-4-yl)-5-[5-(6,9-dioxaspiro[4.4]nonan-8-ylmethoxy)-2-methyl-4-pyridyl]pyrazolo[1,5-a]pyridin-2-amine]	0.016
O=C(Nc1cc2cc(-c3cc(OC(F)F)ncc3O[C@H]3CC[C@H](O)CC3)ccn2n1)C1CC1 [Example 723, N-[5-[2-(difluoromethoxy)-5-(4-hydroxycyclohexoxy)-4-pyridyl]pyrazolo[1,5-a]pyridin-2-yl]cyclopropanecarboxamide]	0.00163
CC(C)(C#N)COc1cnc(OC(F)F)cc1-c1ccn2nc(Nc3cncc(N)n3)cc2c1 [Example 691, 3-[[4-[2-[(6-aminopyrazin-2-yl)amino]pyrazolo[1,5-a]pyridin-5-yl]-6-(difluoromethoxy)-3-pyridyl]oxy]-2,2-dimethyl-propanenitrile]	0.001
COc1cc(Nc2cc3cc(-c4cc(C)ncc4OCC(C)(C)O)ccn3n2)ccc1C(=O)NC1CC1 [Example 643, N-cyclopropyl-4-[[5-[5-(2-hydroxy-2-methyl-propoxy)-2-methyl-4-pyridyl]pyrazolo[1,5-a]pyridin-2-yl]amino]-2-methoxy-benzamide]	0.157
Cc1cc(-c2ccn3nc(Nc4cc(C)nc(C)n4)cc3c2)c(OC[C@@H]2C[C@H](O)CO2)cn1 [Example 606, (3S,5S)-5-[[4-[2-[(2,6-dimethylpyrimidin-4-yl)amino]pyrazolo[1,5-a]pyridin-5-yl]-6-methyl-3-pyridyl]oxymethyl]tetrahydrofuran-3-ol]	0.1
Cc1cc(-c2ccn3nc(Nc4cccnn4)cc3c2)c(OC[C@@H]2CNCC(C)(C)O2)cn1 [Example 518, 5-[5-[[(2S)-6,6-dimethylmorpholin-2-yl]methoxy]-2-methyl-4-pyridyl]-N-pyridazin-3-yl-pyrazolo[1,5-a]pyridin-2-amine]	0.0559
Cc1cc(-c2ccn3nc(Nc4ccc(S(=O)(=O)N(C)C)cc4)cc3c2)c(O[C@H]2CC[C@H](O)CC2)cn1 [Example 324, 4-[[5-[5-(4-hydroxycyclohexoxy)-2-methyl-4-pyridyl]pyrazolo[1,5-a]pyridin-2-yl]amino]-N,N-dimethyl-benzenesulfonamide]	0.0329
Cc1cc(-c2ccn3nc(NC(=O)C4CC4)cc3c2)c(OC[C@@H](O)C(F)(F)F)cn1 (single isomer, unassigned) [Example 454, (*R)—N-[5-[2-methyl-5-[(2R)-3,3,3-trifluoro-2-hydroxy-propoxy]-4-pyridyl]pyrazolo[1,5-a]pyridin-2-yl]cyclopropanecarboxamide]	0.0134
Cc1cc(-c2ccn3nc(NC(=O)C4CC4)cc3c2)c(OC[C@H](N)c2ccccc2)cn1 (single isomer, unassigned) [Example 465]	0.0129
Cc1cc(-c2ccn3nc(Nc4nn(C)c5ccccc45)cc3c2)c(OC[C@H]2OCC[C@@H]2O)cn1 [Example 299, (2R,3S)-2-[[6-methyl-4-[2-[(1-methylindazol-3-yl)amino]pyrazolo[1,5-a]pyridin-5-yl]-3-pyridyl]oxymethyl]tetrahydrofuran-3-ol]	0.00675
